Values after ≈ are worked out from the molar mass of the structure shown. Active and inactive are the calls of the source. The calls are words filed in the database; no cut-off is given here.
Legend:
[1] = test system: Mycobacterium tuberculosis; assay: Antitubercular activity against Mycobacterium tuberculosis assessed as growth inhibition; type: functional
Mycobacterium sp. = assay: Antibacterial activity against Mycobacterium sp. assessed as growth inhibition; type: functional
[2] = test system: Mycobacterium tuberculosis; assay: Antitubercular activity against Mycobacterium tuberculosis H37Rv ATCC 27294 assessed as growth inhibition measured every 24 hrs by BACTEC radiosusceptibility assay; type: functional; settings: H37Rv ATCC 27294, 24 h
[3] = test system: Mycobacterium tuberculosis; assay: Antitubercular activity against Mycobacterium tuberculosis H37Rv ATCC 27294 assessed as growth inhibition at 250 ug/ml measured every 24 hrs by BACTEC radiosusceptibility assay; type: functional, organism-based
[4] = Selectivity ratio of IC50 for human HEK293 cells to MIC for Mycobacterium tuberculosis H37Rv ATCC 27294; type: functional
HEK293 = assay: Cytotoxicity against human HEK293 cells assessed as inhibition of cell viability after 24 hrs by MTT assay; type: cell-based; settings: HEK293, 24 h

In the case of `CC(C)=CCOc1c2ccoc2cc2oc(=O)ccc12` [ISOIMPERATORIN], the MIC [1] is reported as 64 µg/mL (≈ 237 µM).

`COc1cc2oc(=O)ccc2cc1CC=C(C)C` [SUBEROSIN] gave an MIC [1] of 16 µg/mL (≈ 65.5 µM).

In the case of `CC(C)=CCC/C(C)=C/CC/C(C)=C/Cc1c(O)c2ccccc2oc1=O`, the MIC (Mycobacterium sp.) is reported as 2 µg/mL (≈ 5.46 µM).

For `CO[C@H]1/C=C/O[C@@]2(C)Oc3c(C)c(O)c4c(O)c(c(/C=N/N5CCN(C)CC5)c(O)c4c3C2=O)NC(=O)/C(C)=C\C=C\[C@H](C)[C@H](O)[C@@H](C)[C@@H](O)[C@@H](C)[C@H](OC(C)=O)[C@@H]1C` [RIFAMPIN], the MIC [2] was 2 µg/mL (≈ 2.43 µM).

With `COc1ccc2c(/C=C/c3ccc(OCCN4CCCC4)cc3)c(-c3ccccc3)c(=O)oc2c1` the “growth inhibition (GI)” value [3] was “inactive”.

`C=CC(C)(C)c1cc(/C=C/C(=O)c2ccc(O)cc2)c(OC)cc1O` [LICOAGROCHACONE A] showed an MIC [1] of 7.1 µg/mL (≈ 21 µM).

With `CN[C@@H]1[C@H](O[C@H]2[C@H](O[C@H]3[C@H](O)[C@@H](O)[C@H](N=C(N)N)[C@@H](O)[C@@H]3N=C(N)N)O[C@@H](C)[C@]2(O)C=O)O[C@@H](CO)[C@H](O)[C@H]1O` [STREPTOMYCIN] the MIC [2] was 2 µg/mL (≈ 3.44 µM).

For `COc1ccc2c(/C=C/c3ccc(OCCN4CCCCC4)cc3)c(-c3ccccc3)c(=O)oc2c1`, the Ratio [4] was 2.85, the MIC [2] was 3.5 µg/mL (≈ 7.27 µM) and the IC50 (HEK293) was 5 µg/mL (≈ 10.4 µM).

With `COc1cc(/C=C/c2ccccc2)oc(=O)c1` [DESMETHOXYYANGONIN] the MIC [1] was 4 µg/mL (≈ 17.5 µM).

For `COc1ccc(C(=O)/C=C/c2ccc(O)cc2)c(O)c1`, the “growth inhibition (GI)” value [3] was “inactive”.

With `COc1ccc2c(/C=C/c3ccc(OC(C)=O)cc3)c(-c3ccccc3)c(=O)oc2c1` the “growth inhibition (GI)” value [3] was “inactive”.

For `COc1ccc(/C=C/C(=O)c2ccc(O)cc2O)cc1`, the “growth inhibition (GI)” value [3] was “inactive”.

In the case of `CCCCNC(=O)COc1ccc(/C=C(/C(=O)c2ccc(OC)cc2)c2ccccc2)cc1`, the “growth inhibition (GI)” value [3] is reported as “inactive”.

For `COc1ccc(/C=C/c2c(-c3ccccc3)c(=O)oc3cc(O)ccc23)cc1`, the MIC [2] was 125 µg/mL (≈ 337 µM) and the IC50 (HEK293) was over 250 µg/mL.

`COc1ccc2ccc(=O)oc2c1CC=C(C)C` [OSTHOLE] gave an MIC [1] of 32 µg/mL (≈ 131 µM).

In the case of `CCCCN(C)C(=O)COc1ccc(/C=C(/C(=O)c2ccc(OC)cc2)c2ccccc2)cc1`, the “growth inhibition (GI)” value [3] is reported as “inactive”.

Compound `COc1cc(CCc2ccc3c(c2)OCO3)oc(=O)c1` has an MIC [1] of 32 µg/mL (≈ 117 µM).

For `COc1ccc(C(=O)/C(=C/c2ccc(OCC(=O)O)cc2)c2ccccc2)cc1`, the MIC [2] was 250 µg/mL (≈ 644 µM).

In the case of `COc1ccc(C(=O)/C(=C/c2ccc(O)cc2)c2ccccc2)cc1`, the MIC [2] is reported as 60 µg/mL (≈ 182 µM) and the IC50 (HEK293) is reported as 50 µg/mL (≈ 151 µM).

`COc1ccc2c(/C=C/c3ccc(O)cc3)c(-c3ccccc3)c(=O)oc2c1` showed a Ratio [4] of 16, an MIC [2] of 30 µg/mL (≈ 81 µM) and an IC50 (HEK293) of over 250 µg/mL.

For `COc1ccc2c(/C=C/c3ccc(OC(C)CN(C)C)cc3)c(-c3ccccc3)c(=O)oc2c1` (stereo not drawn), the MIC [2] was 7.5 µg/mL (≈ 16.5 µM) and the IC50 (HEK293) was 5 µg/mL (≈ 11 µM).

— ChEMBL document CHEMBL2331345, “Syntheses of lipophilic chalcones and their conformationally restricted analogues as antitubercular agents” (Bioorg Med Chem Lett, 2013)
